From patent EP4656630A1, “NOVEL COMPOUND AS LYSYL-TRNA SYNTHETASE 1 INHIBITOR, AND USE THEREOF” (Zymedi Co., Ltd., priority 2023, dated 2024)

Legend:
[1] = S9 metabolic stability, mouse; format: in vitro ADME; conditions: for Metabolic stability (% remaining at each time) Mouse (min) 30: 30 min; for Metabolic stability (% remaining at each time) Mouse (min) 45: 45 min; for Metabolic stability (% remaining at each time) Mouse (min) 60: 60 min
Procedure: (§1) Among these, secondary MS measurements were conducted for Compound 25 (C0047), Compound 43 (C0216), and C0001 using the S9 method. This test measured the remaining % at 30, 45, and 60 minutes for four species: mouse, rat, dog, and human.

[2] = Microsomal metabolic stability, human; format: in vitro ADME
Procedure: (§2) Metabolic stability (MS) evaluation was conducted for the selected compounds by measuring in vitro stability in two species, rat and human, according to the microsomal stability measurement method. As a result, it was identified that MS varied depending on the transformation of parts A, B, and C.

[3] = Microsomal metabolic stability, rat; format: in vitro ADME
Procedure: as §2

[4] = Rat pharmacokinetics (po and iv) and bioavailability; format: in vivo; conditions: for Cmax / Tmax / half-life / AUC: in vivo
Procedure: For this purpose, formulations suitable for peroral administration (po) and intravenous injection (iv) for each compound were first selected to ensure stable PK progression.
The formulation was selected under the condition of maintaining a clear solution for more than 1 hour at 10 and 30 mpk doses based on po, and the iv formulation was modified when iv use was not possible based on po (Table 8).
To confirm the oral administration potential of the selected compounds, 10 mpk rat po PK was conducted. The PK profile and key indicators after administering 10 mpk to five compounds, C0001, 25, 41, 42, and 43, are shown in Figure 3 and Table 9.
Based on the previous 10 mpk po rat PK results, 30 mpk po rat PK was conducted for four compounds, C0001, 25, 41, and 43, to confirm changes in the blood PK profile of the substances with increasing doses.
For these compounds, 2 mpk iv rat PK was conducted to calculate bioavailability (BA) (Table 11).

Raw264.7 cells = test: KARS1-induced trans-migration assay; format: cell-based, mouse; conditions: Mus musculus, RAW264.7; for inhibition at 1 µM: 1 µM compound, read-out: KARS1-induced Raw264.7 cell migration (% inhibition, 1uM); for EC50: KARS1-induced cell migration, 0.1~4 µM
How it was run: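 Mouse Raw264.7 macrophage trans-migration induced by externally added KARS1 protein in place of laminin. Candidates with high inhibition at 1 µM were then tested at 0.1~4 µM.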

[5] = S9 metabolic stability, rat; format: in vitro ADME; conditions: for Metabolic stability (% remaining at each time) Rat (min) 30: 30 min; for Metabolic stability (% remaining at each time) Rat (min) 45: 45 min; for Metabolic stability (% remaining at each time) Rat (min) 60: 60 min
Procedure: as §1

Raw 264.7 cells = test: LN (Laminin 421)-induced immune cell migration, Transwell; format: cell-based; conditions: Mus musculus, RAW264.7; for inhibition at 3 µM: 3 µM compound, LN (Laminin 421 1 µg/ml), 24 hours, % inhibition compared to control group, read-out: Migration inhibitor % (3uM); for EC50: LN-induced cell migration, read-out: EC50 for cell migration inhibition induced by LN
How it was run: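 Raw 264.7 cells (1 x 10^5/well) seeded in upper chamber of gelatin-coated 5 µm Transwell with compound at 3 µM. Serum-free DMEM with Laminin 421 (1 µg/ml) in lower chamber. After 24 h, migrated cells fixed, hematoxylin-stained and counted by microscopy; expressed as % inhibition versus control.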

[6] = S9 metabolic stability, human; format: in vitro ADME; conditions: for Metabolic stability (% remaining at each time) Human (min) 30: 30 min; for Metabolic stability (% remaining at each time) Human (min) 45: 45 min; for Metabolic stability (% remaining at each time) Human (min) 60: 60 min
Procedure: as §1

Organ distribution = format: in vivo; set-up: Organ distribution Plasma (ng/ml): concentration or dose not given beside the values
[7] = S9 metabolic stability, dog; format: in vitro ADME; conditions: for Metabolic stability (% remaining at each time) Dog (min) 30: 30 min; for Metabolic stability (% remaining at each time) Dog (min) 45: 45 min; for Metabolic stability (% remaining at each time) Dog (min) 60: 60 min
Procedure: as §1

KARS1 and 37LR = target: T1, KARS1 and 37LR (Homo sapiens, UniProt Q15046); test: Cell-free ELISA of KARS1 and 37LR (laminin receptor) binding; conditions: 10 µM compound, 1 hour, plate coated with KARS1 (1-207aa), LRF
T1 construct: KARS1 (1-207aa)
Procedure: Next, based on the mechanism of action, a cell-free ELISA analysis was conducted to select compounds with high inhibitory activity on the binding of KARS1 and LR (laminin receptor).

[8] = po, 10 mg/kg, 10 mpk (Table 11)
[9] = po, 30 mg/kg, 30 mpk (Table 11)

T1 sequence (Q15046 1-207): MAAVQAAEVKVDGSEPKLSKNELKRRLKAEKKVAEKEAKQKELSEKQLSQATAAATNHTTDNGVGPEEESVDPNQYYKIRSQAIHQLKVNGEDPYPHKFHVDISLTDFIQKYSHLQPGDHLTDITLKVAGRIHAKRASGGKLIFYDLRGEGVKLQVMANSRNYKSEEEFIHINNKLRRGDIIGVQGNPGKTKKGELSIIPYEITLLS

COc1ccc(CCN(Cc2ccc(N3CC[C@H](C(=O)O)C3)cc2)c2nc3cccc(F)c3s2)cc1 [Compound 25, (S)-1-(4-(((7-fluorobenzo[d]thiazol-2-yl)(4-methoxyphenethyl)amino)-methyl)phenyl)pyrrolidine-3-carboxylic acid]
Metabolic stability (% remaining at each time) Mouse (min) 30 [1]: 70.5% | Metabolic stability (% remaining at each time) Mouse (min) 45 [1]: 71.7% | Metabolic stability (% remaining at each time) Mouse (min) 60 [1]: 60.9% | Metabolic stability (% remaining at 30 min) Human [2]: 66% | Metabolic stability (% remaining at 30 min) Rat [3]: 77% | Cmax ([4]; 10 mg/kg, po, 10 mpk): 1750 ng/mL | Tmax ([4]; 10 mg/kg, po, 10 mpk): 1 h | half-life ([4]; 10 mg/kg, po, 10 mpk): 1.34 h | Cmax ([4]; 30 mg/kg, po, 30 mpk): 14400 ng/mL | Tmax ([4]; 30 mg/kg, po, 30 mpk): 2 h | half-life ([4]; 30 mg/kg, po, 30 mpk): 0.76 h | AUC ([4]; iv, 2 mg/kg, 2 mpk): 2410 ng·h/mL | AUC ([4]; po, 10 mg/kg, 10 mpk): > 5000 ng·h/mL | AUC [4, 8]: 5410 ng·h/mL | AUC ([4]; po, 30 mg/kg, 30 mpk): 53000 ng·h/mL | AUC [4, 9]: 53000 ng·h/mL | BA (%) ([4]; po, 10 mpk against iv 2 mpk): 44.9% | AUC (ng*h/ml) ([4]; po, 10 mpk, listed as 25 (C0047), 10 mg/kg): 5,109 ng*h/ml | BA (%) ([4]; po, 30 mpk against iv 2 mpk): 146.6% | AUC value increase at 30 mpk ([4]; po, 30 mpk compared with 10 mpk): 10.4 times | inhibition at 1 µM (Raw264.7 cells): 96.2% | EC50 (Raw264.7 cells): 0.57 µM | Metabolic stability (% remaining at each time) Rat (min) 30 [5]: 86.0% | Metabolic stability (% remaining at each time) Rat (min) 45 [5]: 84.1% | Metabolic stability (% remaining at each time) Rat (min) 60 [5]: 88.5% | inhibition at 3 µM (Raw 264.7 cells): 83% | EC50 (Raw 264.7 cells): 5.96 µM | Metabolic stability (% remaining at each time) Human (min) 30 [6]: 70.1% | Metabolic stability (% remaining at each time) Human (min) 45 [6]: 75.8% | Metabolic stability (% remaining at each time) Human (min) 60 [6]: 66.8% | Organ distribution (ratio per plasma) Brain (Organ distribution; 0.5 h): 0.06 | Organ distribution (ratio per plasma) Brain (Organ distribution; 6.0 h): 0.54 | Organ distribution (ratio per plasma) Heart (Organ distribution; 0.5 h): 0.29 | Organ distribution (ratio per plasma) Heart (Organ distribution; 6.0 h): 0.52 | Organ distribution (ratio per plasma) Kidney (Organ distribution; 0.5 h): 0.38 | Organ distribution (ratio per plasma) Kidney (Organ distribution; 6.0 h): 0.79 | Organ distribution (ratio per plasma) Liver (Organ distribution; 0.5 h): 0.85 | Organ distribution (ratio per plasma) Liver (Organ distribution; 6.0 h): 3.15 | Organ distribution (ratio per plasma) Lung (Organ distribution; 0.5 h): 0.41 | Organ distribution (ratio per plasma) Lung (Organ distribution; 6.0 h): 1.05 | Organ distribution Plasma (ng/ml) (Organ distribution; 0.5 h): 29,901 ng/ml | Organ distribution Plasma (ng/ml) (Organ distribution; 6.0 h): 1,499 ng/ml | Metabolic stability (% remaining at each time) Dog (min) 30 [7]: 100.6% | Metabolic stability (% remaining at each time) Dog (min) 45 [7]: 93.5% | Metabolic stability (% remaining at each time) Dog (min) 60 [7]: 97.0% | inhibition at 10 µM (KARS1 and 37LR): 69.2%

COc1ccc(CCN(Cc2ccc(C#CC(=O)O)cc2)c2nc3cccc(F)c3s2)cc1 [Compound C0001, reference compound]
Metabolic stability (% remaining at each time) Mouse (min) 30 [1]: 67.1% | Metabolic stability (% remaining at each time) Mouse (min) 45 [1]: 62.3% | Metabolic stability (% remaining at each time) Mouse (min) 60 [1]: 49.6% | Metabolic stability (% remaining at 30 min) Human [2]: 56% | Metabolic stability (% remaining at 30 min) Rat [3]: 50% | Cmax ([4]; 10 mg/kg, po, 10 mpk): 2020 ng/mL | Tmax ([4]; 10 mg/kg, po, 10 mpk): 0.5 h | half-life ([4]; 10 mg/kg, po, 10 mpk): 1.83 h | Cmax ([4]; 30 mg/kg, po, 30 mpk): 4720 ng/mL | Tmax ([4]; 30 mg/kg, po, 30 mpk): 2 h | half-life ([4]; 30 mg/kg, po, 30 mpk): 2.67 h | AUC ([4]; iv, 2 mg/kg, 2 mpk): 3440 ng·h/mL | AUC ([4]; po, 10 mg/kg, 10 mpk): > 5000 ng·h/mL | AUC [4, 8]: 5830 ng·h/mL | AUC ([4]; po, 30 mg/kg, 30 mpk): 25600 ng·h/mL | AUC [4, 9]: 25600 ng·h/mL | BA (%) ([4]; po, 10 mpk against iv 2 mpk): 33.9% | BA (%) ([4]; po, 30 mpk against iv 2 mpk): 49.6% | inhibition at 1 µM (Raw264.7 cells): 68.7% | EC50 (Raw264.7 cells): 0.75 µM | Metabolic stability (% remaining at each time) Rat (min) 30 [5]: 79.6% | Metabolic stability (% remaining at each time) Rat (min) 45 [5]: 76.6% | Metabolic stability (% remaining at each time) Rat (min) 60 [5]: 83.1% | inhibition at 3 µM (Raw 264.7 cells): 41.9% | EC50 (Raw 264.7 cells): 7.93 µM | Metabolic stability (% remaining at each time) Human (min) 30 [6]: 59.1% | Metabolic stability (% remaining at each time) Human (min) 45 [6]: 50.2% | Metabolic stability (% remaining at each time) Human (min) 60 [6]: 46.2% | Organ distribution (ratio per plasma) Brain (Organ distribution; 0.5 h): 0.02 | Organ distribution (ratio per plasma) Brain (Organ distribution; 6.0 h): 0.01 | Organ distribution (ratio per plasma) Heart (Organ distribution; 0.5 h): 0.06 | Organ distribution (ratio per plasma) Heart (Organ distribution; 6.0 h): 0.03 | Organ distribution (ratio per plasma) Kidney (Organ distribution; 0.5 h): 0.01 / 0.01 | Organ distribution (ratio per plasma) Kidney (Organ distribution; 6.0 h): 0.01 / 0.01 | Organ distribution (ratio per plasma) Liver (Organ distribution; 0.5 h): 19.1 / 19.1 | Organ distribution (ratio per plasma) Liver (Organ distribution; 6.0 h): 19.1 / 19.1 | Organ distribution (ratio per plasma) Lung (Organ distribution; 0.5 h): 0.08 | Organ distribution (ratio per plasma) Lung (Organ distribution; 6.0 h): 0.06 | Organ distribution Plasma (ng/ml) (Organ distribution; 0.5 h): 3,145 ng/ml | Organ distribution Plasma (ng/ml) (Organ distribution; 6.0 h): 1,769 ng/ml | Metabolic stability (% remaining at each time) Dog (min) 30 [7]: 80.7% | Metabolic stability (% remaining at each time) Dog (min) 45 [7]: 85.6% | Metabolic stability (% remaining at each time) Dog (min) 60 [7]: 75.9% | inhibition at 10 µM (KARS1 and 37LR): 64.5%
